Data on four molecules can be found in patent EP2718307B1, “BETA-HAIRPIN PEPTIDOMIMETICS AS CXC4 ANTAGONISTS” (Polyphor AG, priority 2011, dated 2012).

Read-outs that look alike come from different tables or passages of the source. Bridge positions count the residues as written; N and C are the ends. Square brackets hold non-standard residues; d marks the D form. Peptide text beside a SMILES is read from it. Lys(iPr) = CC(C)NCCCC[C@H](N)C(=O)O; Orn(iPr) = CC(C)NCCC[C@H](N)C(=O)O

Data set [1] can be described thus: Plasma protein binding (ultrafiltration). The data set is classed as in vitro ADME, human. Here is the method:
495 µL aliquots of human plasma (Basler Blutspendedienst) as well as 495 µL aliquots of PBS were placed in individual deepwells of a polypropylene plate (Greiner) and spiked each with 5 µL of 1 mM solutions of peptides in 90% DMSO. After shaking the plate for 2 min at 600 rpm 150 µL aliquots of the plasma/peptide mixtures were transferred in triplicates to the polypropylene filter plate (10 kDa, Millipore) whereas 150 µL aliquots of the PBS/peptide mixtures were transferred either to the individual wells of the filter plate (filtered controls) or directly into the individual wells of the receiving plate (Greiner) (non-filtered controls). The plate sandwich consisting of filter and receiving plate was incubated for 1 h at 37°C and subsequently centrifuged at 3220 g for 2h at 15 °C. The filtrates in the receiving plate were analysed by LC/MS as follows: Column: Waters, XBridge C18, mobile phases: (A) water + 0.1% formic acid and (B) acetonitrile/water, 95/5 (v/v) + 0.1% formic acid, gradient: 5%-100% (B) in 1.8 min, electrospray ionization, MRM detection (triple quadrupole). The peak areas were determined and triplicate values are averaged. The binding is expressed in percent of the filtered and non-filtered controls by 100-(100x T1h/Tctr). Finally the average of these values is calculated.

The nature of data set [2]: Plasma stability, human plasma. The data set is classed as in vitro ADME. As for the experimental part: (§1) The stability of the peptides in human and mouse plasma was determined by applying the following method: 346.5 µL/deep well of freshly thawed human plasma (Basler Blutspende-dienst) and mouse plasma (Harlan Sera-Lab, UK), respectively, were spiked with 3.5 µL/well of compound dissolved in DMSO/H2O (90/10 [v/v], 1 mM, triplicate) and incubated at 37° C. At t = 0, 15, 30, 60, 120, 240 and 1440 min aliquots of 50 µL were transferred to filtration plate wells containing 150 µL/well of 2% formic acid in acetonitrile. Following shaking for 2 min the occurred suspensions were filtrated by vacuum. 100 µL of each filtrate were transferred to a propylene microtiter plate and dried under N2. The residual solids were reconstituted by adding 100 µL/well of water/acetonitrile, 95/5 (v/v) + 0.2% formic acid and analyzed by LC/MS as follows: Column: Waters, XBridge C18, mobile phases: (A) water + 0.1% formic acid and (B) acetonitrile/water, 95/5 (v/v) + 0.1% formic acid, gradient: 5%-100% (B) in 1.8 minutes, electrospray ionization, MRM detection (triple quadrupole). The peak areas were determined and triplicate values are averaged. The stability is expressed in percent of the initial value at t = 0. (tx/t0 x 100). By using the TREND function of EXCEL (Microsoft Office 2003) T1/2 were determined.

A short description of data set [3]: Pharmacokinetic study (PK) after intravenous administration. The conditions noted are these: 1 mg/kg; for AUC0-∞ / CL / Cmax / Half-life / Vdis: mouse, in vivo. The data set is classed as in vivo, male CD-1 mice. As for the experimental part:
For the compounds of Ex. 1, Ex.2, Ex. 3, Ex. 4, Ex. 5 and Ex. 6 pharmacokinetic studies after intravenous (i.v.) administration were performed.
30 grams (± 20%) male CD-1 mice obtained from Charles River Laboratories Deutschland GmbH were used. The vehicle, phosphate buffered saline, was added to give a final concentration of 0.5 mg/mL of the compound. The volume was 2 mL/kg and the compound was injected to give a final intravenous dose of 1 mg/kg. Approximately 300-400 µL of blood was removed under light isoflurane anesthesia by cardiac puncture at predetermined time intervals (5, 15, 30 min and 1, 2, 3, 4, hours) and added to heparinized tubes. Plasma was removed from pelleted cells upon centrifugation and frozen at -80 °C prior to HPLC-MS analysis.
Aliquots of 50 µL each of mouse plasma of untreated aminals ("blank" mouse plasma) were spiked with known amounts of the compounds Ex. 1, Ex.2, Ex. 3, Ex. 4, Ex. 5 and Ex. 6 in order to obtain 10 plasma calibration samples for each compound in the range 1 - 4000 ng/mL. Aliquots of 50 µL each of mouse plasma from treated animals were used as plasma study samples.
All plasma samples were spiked with an appropriate internal standard and extracted with acetonitrile containing 2% formic acid. Supernatants were evaporated to dryness under nitrogen and the remaining solids reconstituted in water/acetonitrile 95/5 (v/v) + 0.2% formic acid.
Extracts were then analyzed by reverse-phase chromatography (Acquity BEH C18, 100 x 2.1 mm, 1.7 µm column, Waters for Ex. 1 and Acquity HSS C18 SB, 100 x 2.1 mm, 1.8 µm column, Waters for Ex. 2, Ex. 3, Ex. 4, Ex. 5 and Ex. 6), using the following conditions: Ex. 1, mobile phases: (A) water/acetonitrile 95/5 (v/v) + 0.1% formic acid, (B) acetonitrile/water 95/5 (v/v) + 0.1% formic acid, gradient: 1% (B) 0-0.1 min, 15% (B) 0.1-2.5 min for Ex. 1 and 1% (B) 0-0.1 min, 40% (B) 0.1-2.5 min for Ex. 2, Ex. 3, Ex. 4, Ex. 5 and Ex. 6. The detection and quantification was performed by mass spectrometry, with electrospray interface in positive mode and selective fragmentation of analytes (4000 Q Trap mass spectrometer, AB Sciex).
PK parameters were calculated by WinNonLin™ software version 5.3 (Pharsight- A Certara™ Company, Moutain View, CA 94041 USA) using a one-compartmental model analysis. PK parameters were determined by least-square fitting of the model to the experimental data.

Data set [4] can be described thus: Plasma stability, mouse plasma. Format: in vitro ADME. As for the experimental part:
as §1

Data set [5] deals with human red blood cells (hRBC). The data set can be described thus: Hemolysis. The data set is classed as cell-based. Here is the method: The peptides were tested for their hemolytic activity against human red blood cells (hRBC). Fresh hRBC were washed four times with phosphate buffered saline (PBS) and centrifuged for 10 min at 3000 x g. Compounds (100 µM) were incubated with 20% hRBC (v/v) for 1 h at 37°C and shaking at 300 rpm. The final erythrocyte concentration was approximately 0.9 x 10^9 cells/mL. A value of 0% and 100% cell lysis, respectively, was determined by incubation of hRBC in the presence of PBS containing 0.001% acetic acid and 2.5% Triton X-100 in H2O respectively. The samples were centrifuged, the supernatants were 8-fold diluted in PBS buffer and the optical densities (OD) were measured at 540 nm. The 100% lyses value (OD540H2O) gave an OD540 of approximately 0.5-1.0. Percent hemolysis was calculated as follows: (OD540peptide/OD540H2O) x 100%. [formula]

Turning to `CC(C)NCCCC[C@@H]1NC(=O)[C@H](CCC(N)=O)NC(=O)[C@H](Cc2ccc(O)cc2)NC(=O)[C@@H]2CSSC[C@H](NC(=O)[C@H](Cc3ccc(O)cc3)NC(=O)[C@H](Cc3c[nH]cn3)NC(=O)[C@H](Cc3ccc(O)cc3)NC(=O)[C@@H]3CCCN3C(=O)[C@H]3CCCN3C1=O)C(=O)N[C@@H](CO)C(=O)N[C@@H](C)C(=O)N1CCC[C@@H]1C(=O)N[C@@H](CCCNC(C)C)C(=O)N[C@@H](CCCNC(=N)N)C(=O)N[C@@H](Cc1ccc(O)cc1)C(=O)N2` [Ex. 1, cyclo(-Tyr^1-His^2-Tyr^3-Cys^4-Ser^5-Ala^6-^DPro^7-Orn(iPr)^8-Arg^9-Tyr^10-Cys^11-Tyr^12-Gln^13-Lys(iPr)^14-^DPro^15-Pro^16-), disulfide bond between Cys^4 and Cys^11] (cyclo(YHYCSA[dP][Orn(iPr)]RYCYQ[Lys(iPr)][dP]P); disulfide 4-11), in data set [1], the Plasma protein binding was 30%. Moreover, in data set [2], the “Plasma stability human pl. T1/2” value was determined as 24 h and the “Plasma stability human pl. cpd left at 1440 min” value is on record as 77%. Moreover, the “Calc. Conc.” value in data set [3] (mouse plasma, i.v. route, Time 4 h) was 7 ng/mL. In data set [3] (iv), the “AUC0-∞” value is 1151 ng·h/mL; the CL was 14.5 mL/min/kg; the Cmax (as a rule, the peak of the concentration-time curve) stood at 1829 ng/mL; the Half-life is 0.4 h. The same molecule had a Vdis in data set [3] (iv) of 0.547 L/kg. Moreover, in data set [4], the “Plasma stability mouse pl. T1/2” value is 24 h and the “Plasma stability mouse pl. cpd left at 1440 min” value is listed as 100%. Moreover, the “Hemolysis at 100 µM” value in data set [5] (red cells of human, 1 h, 100) was determined as 1.0%.
As for `COc1ccc(C[C@@H]2NC(=O)[C@H](Cc3c[nH]cn3)NC(=O)[C@H](Cc3ccc(O)cc3)NC(=O)[C@@H]3CCCN3C(=O)[C@H]3CCCN3C(=O)[C@H](CCCCNC(C)C)NC(=O)[C@H](CCC(N)=O)NC(=O)[C@H](Cc3ccc(O)cc3)NC(=O)[C@@H]3CSSC[C@H](NC2=O)C(=O)N[C@@H](CO)C(=O)N[C@@H](C)C(=O)N2CCC[C@@H]2C(=O)N[C@@H](CCCNC(C)C)C(=O)N[C@@H](CCCNC(=N)N)C(=O)N[C@@H](Cc2ccc(O)cc2)C(=O)N3)cc1` [Ex. 2, cyclo(-Tyr^1-His^2-Tyr(Me)^3-Cys^4-Ser^5-Ala^6-^DPro^7-Orn(iPr)^8-Arg^9-Tyr^10-Cys^11-Tyr^12-Gln^13-Lys(iPr)^14-^DPro^15-Pro^16-), disulfide bond between Cys^4 and Cys^11] (cyclo(YHY(Me)CSA[dP][Orn(iPr)]RYCYQ[Lys(iPr)][dP]P); disulfide 4-11), the Plasma protein binding in data set [1] was 48%. Besides, in data set [2], the “Plasma stability human pl. T1/2” value was found to be 24 h and the “Plasma stability human pl. cpd left at 1440 min” value turned out to be 100%. Moreover, in data set [3] (iv), the “AUC0-∞” value is 1518 ng·h/mL, the CL was found to be 11 mL/min/kg, the Cmax stood at 1575 ng/mL and the Half-life was found to be 0.7 h. Besides, the Vdis in data set [3] (iv) was 0.635 L/kg. For the same molecule, in data set [4], the “Plasma stability mouse pl. T1/2” value is 24 h and the “Plasma stability mouse pl. cpd left at 1440 min” value is 100%. Further, the “Hemolysis at 100 µM” value in data set [5] (red cells of human, 1 h, 100) was found to be 1.0%.
With `COc1ccc(C[C@H]2NC(=O)[C@H](C)NC(=O)[C@H](CO)NC(=O)[C@@H]3CSSC[C@H](NC(=O)[C@H](Cc4ccc(O)cc4)NC(=O)[C@H](CCCNC(=N)N)NC(=O)[C@H](CCCNC(C)C)NC2=O)C(=O)N[C@@H](Cc2ccc(O)cc2)C(=O)N[C@@H](CCC(N)=O)C(=O)N[C@@H](CCCCNC(C)C)C(=O)N2CCC[C@@H]2C(=O)N2CCC[C@H]2C(=O)N[C@@H](Cc2ccc(O)cc2)C(=O)N[C@@H](Cc2c[nH]cn2)C(=O)N[C@@H](C)C(=O)N3)cc1` [Ex. 4, cyclo(-Tyr^1-His^2-Ala^3-Cys^4-Ser^5-Ala^6-^DTyr(Me)^7-Orn(iPr)^8-Arg^9-Tyr^10-Cys^11-Tyr^12-Gln^13-Lys(iPr)^14-^DPro^15-Pro^16-), disulfide bond between Cys^4 and Cys^11] (cyclo(YHACSA[dY](Me)[Orn(iPr)]RYCYQ[Lys(iPr)][dP]P); disulfide 4-11), the Plasma protein binding in data set [1] is 56%. In data set [2], the “Plasma stability human pl. T1/2” value is 24 h and the “Plasma stability human pl. cpd left at 1440 min” value was 94%. Besides, in data set [3] (iv), the “AUC0-∞” value was found to be 1345 ng·h/mL, the CL was determined as 12.4 mL/min/kg, the Cmax turned out to be 1615 ng/mL and the Half-life is on record as 0.6 h. In data set [3] (iv), this molecule yielded a Vdis of 0.607 L/kg. Also, in data set [4], the “Plasma stability mouse pl. T1/2” value was found to be 24 h and the “Plasma stability mouse pl. cpd left at 1440 min” value is recorded as 60%. Further, in data set [5] (red cells of human, 1 h, 100), the “Hemolysis at 100 µM” value is 0%.
Consider `COc1ccc(C[C@@H]2NC(=O)[C@H](Cc3c[nH]cn3)NC(=O)[C@H](Cc3ccc(O)cc3)NC(=O)[C@@H]3CCCN3C(=O)[C@H]3CCCN3C(=O)[C@H](CCCCNC(C)C)NC(=O)[C@H](CCC(N)=O)NC(=O)[C@H](Cc3ccc(O)cc3)NC(=O)[C@@H]3CSSC[C@H](NC2=O)C(=O)N[C@@H](CO)C(=O)N[C@@H](C)C(=O)N[C@H](Cc2ccc(OC)cc2)C(=O)N[C@@H](CCCNC(C)C)C(=O)N[C@@H](CCCNC(=N)N)C(=O)N[C@@H](Cc2ccc(O)cc2)C(=O)N3)cc1` [Ex. 6, cyclo(-Tyr^1-His^2-Tyr(Me)^3-Cys^4-Ser^5-Ala^6-^DTyr(Me)^7-Orn(iPr)^8-Arg^9-Tyr^10-Cys^11-Tyr^12-Gln^13-Lys(iPr)^14-^DPro^15-Pro^16-), disulfide bond between Cys^4 and Cys^11] (cyclo(YHY(Me)CSA[dY](Me)[Orn(iPr)]RYCYQ[Lys(iPr)][dP]P); disulfide 4-11), for which the “Plasma stability human pl. T1/2” value in data set [2] (human plasma, 37° C, last time point 1440 min) worked out at 24 h. Further, the level at 4 h in data set [3] (male, CD-1, in vivo, iv, mouse plasma, i.v. route, Time 4 h, read-out: Calc. Conc.) was 7 ng/mL. The “Plasma stability mouse pl. T1/2” value in data set [4] (mouse plasma, 37° C, last time point 1440 min) was found to be 24 h. For the same molecule, the “Hemolysis at 100 µM” value in data set [5] (100 µM, 20% hRBC, 1 h at 37°C) was 2%.
